Assay results published in patent publication US20260184726A1, “HETEROCYCLIC COMPOUNDS AS KINASE INHIBITORS, COMPOSITIONS, AND METHODS OF USE THEREOF” (JS INNOMED HOLDINGS LTD., priority 2022, published 2026).

What was measured:
human RET kinase = target: T1, human RET kinase (Homo sapiens, UniProt P07949); experiment: RET Kinase Assay (mobility shift assay, ATP at Km); type: biochemical; details: 23 μM ATP (Km), read-out: RET Enzymatic Activity
T1 construct: purchased Carna 08-159
Outline: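 Human RET (7 nM) pre-incubated with compound 15 min at room temperature in 50 mM HEPES pH 7.5, 0.0015% Brij-35; reaction with 3 μM FAM-P2 peptide and 23 μM ATP (Km) 1 h at 28° C, EDTA-stopped. Mobility shift read; IC50 from sigmoid fit of percent of 2% DMSO control.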

BAF3-KIF5B-RET cells = target: T2, BAF3-KIF5B-RET cells (Homo sapiens, UniProt P07949); experiment: BAF3-KIF5B-RET Cell Proliferation Assay (CellTiter-Glo); type: cell-based; details: growth inhibition, 72 hours; Table 2; read-out: BA/F3-KIF5B-RET Cellular activity
T2 construct: fused on or other part: P33176 (Kinesin-1 heavy chain)
T2 sequence (P07949 whole entry, change not shown, the tested form may be a part): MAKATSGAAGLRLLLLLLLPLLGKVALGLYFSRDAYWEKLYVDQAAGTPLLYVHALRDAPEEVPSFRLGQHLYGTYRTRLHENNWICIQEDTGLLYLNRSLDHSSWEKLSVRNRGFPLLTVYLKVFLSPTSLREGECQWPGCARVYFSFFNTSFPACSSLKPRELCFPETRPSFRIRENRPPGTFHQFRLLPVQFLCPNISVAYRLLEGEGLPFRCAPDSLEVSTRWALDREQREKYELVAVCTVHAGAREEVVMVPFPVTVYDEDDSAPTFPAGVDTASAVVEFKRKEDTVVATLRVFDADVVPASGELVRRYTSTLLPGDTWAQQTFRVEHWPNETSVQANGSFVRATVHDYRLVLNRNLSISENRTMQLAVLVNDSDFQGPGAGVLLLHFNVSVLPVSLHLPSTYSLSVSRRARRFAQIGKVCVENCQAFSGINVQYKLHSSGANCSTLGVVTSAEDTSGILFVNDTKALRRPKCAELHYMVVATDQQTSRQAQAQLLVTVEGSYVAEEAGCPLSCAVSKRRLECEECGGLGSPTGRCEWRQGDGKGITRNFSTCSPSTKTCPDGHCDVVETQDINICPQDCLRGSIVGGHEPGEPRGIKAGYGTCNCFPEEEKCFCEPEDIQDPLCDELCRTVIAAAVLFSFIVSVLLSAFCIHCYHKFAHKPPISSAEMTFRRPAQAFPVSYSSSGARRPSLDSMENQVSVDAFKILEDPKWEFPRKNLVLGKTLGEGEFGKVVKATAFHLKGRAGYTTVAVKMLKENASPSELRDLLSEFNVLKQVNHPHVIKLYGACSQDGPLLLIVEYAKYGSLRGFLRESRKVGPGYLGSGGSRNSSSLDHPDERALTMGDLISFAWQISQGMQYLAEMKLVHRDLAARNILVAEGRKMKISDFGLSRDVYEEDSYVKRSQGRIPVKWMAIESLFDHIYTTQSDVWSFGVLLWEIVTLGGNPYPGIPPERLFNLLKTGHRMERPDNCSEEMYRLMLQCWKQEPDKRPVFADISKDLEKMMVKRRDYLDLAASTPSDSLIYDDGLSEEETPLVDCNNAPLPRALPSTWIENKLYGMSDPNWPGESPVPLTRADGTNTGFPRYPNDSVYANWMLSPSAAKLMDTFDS
Outline: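 Ba/F3 cells driven by KIF5B-RET (wild-type, V804M or G810R) or TEL-RET-M918T, 2,000 per well in RPMI/10% FBS, attached 24 h. Treated 72 h at 37° C with compound from 0.00015 to 1 μM final, 0.1% DMSO. CellTiter-Glo luminescence relative to DMSO wells gave IC50.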

T1 sequence (P07949 29-1114): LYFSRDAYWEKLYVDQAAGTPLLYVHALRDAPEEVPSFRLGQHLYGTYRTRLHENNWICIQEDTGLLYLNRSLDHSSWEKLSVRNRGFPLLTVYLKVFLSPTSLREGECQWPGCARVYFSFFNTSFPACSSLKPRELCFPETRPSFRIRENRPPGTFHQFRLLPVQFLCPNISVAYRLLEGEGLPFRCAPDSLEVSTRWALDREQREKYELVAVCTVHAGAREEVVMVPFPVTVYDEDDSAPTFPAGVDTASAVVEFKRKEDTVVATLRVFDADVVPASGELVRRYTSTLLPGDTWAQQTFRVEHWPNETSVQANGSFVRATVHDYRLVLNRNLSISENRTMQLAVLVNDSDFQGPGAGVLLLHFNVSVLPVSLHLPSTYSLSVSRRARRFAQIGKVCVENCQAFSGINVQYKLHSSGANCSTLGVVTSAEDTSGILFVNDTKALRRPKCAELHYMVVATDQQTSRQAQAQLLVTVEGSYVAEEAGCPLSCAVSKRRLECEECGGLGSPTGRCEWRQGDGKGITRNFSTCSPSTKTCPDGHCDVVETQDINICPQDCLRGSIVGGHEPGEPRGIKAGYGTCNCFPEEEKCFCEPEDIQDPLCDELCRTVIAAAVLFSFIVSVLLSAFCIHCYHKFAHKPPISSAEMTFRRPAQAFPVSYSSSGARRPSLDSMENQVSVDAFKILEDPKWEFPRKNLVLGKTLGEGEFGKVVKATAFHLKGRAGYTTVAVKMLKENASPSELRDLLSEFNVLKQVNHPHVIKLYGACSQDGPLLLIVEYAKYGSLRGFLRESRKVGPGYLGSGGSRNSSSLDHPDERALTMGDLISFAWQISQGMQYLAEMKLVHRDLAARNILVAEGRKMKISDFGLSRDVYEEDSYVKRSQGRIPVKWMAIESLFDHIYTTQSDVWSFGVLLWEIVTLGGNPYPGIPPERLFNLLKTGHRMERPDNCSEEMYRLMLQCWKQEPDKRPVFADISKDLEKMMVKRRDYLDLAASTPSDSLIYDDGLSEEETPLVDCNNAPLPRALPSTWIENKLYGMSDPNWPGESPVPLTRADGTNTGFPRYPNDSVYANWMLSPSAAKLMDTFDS

Q: How did the IC50 (human RET kinase) turn out when `COc1ccc(CN2C3CC2CN(c2ccc(-c4cc(-c5ccc(C(C)(C)NC(C)=O)cn5)cn5ncc(C#N)c45)cn2)C3)cn1` [Example 12, N-(2-(6-(3-cyano-4-(6-(6-((6-methoxypyridin-3-yl)methyl)-3,6-diazabicyclo[3.1.1]heptan-3-yl)pyridin-3-yl)pyrazolo[1,5-a]pyridin-6-yl)pyridin-3-yl)propan-2-yl)acetamide] was run?
A: 0.4 nM

Q: What about the GI50 (BAF3-KIF5B-RET cells) of the same compound?
A: 1 nM
